Laboratory results from US7745446B2, “Pyrazolo[1,5-c]pyrimidines” (Bayer Schering Pharma Aktiengesellschaft, priority 2004, dated 2010).

How the values were obtained:
MDA-MB-468 cells = experiment: Cellular proliferation/cytotoxicity assay (Alamar Blue), MDA-MB-468; settings: Homo sapiens, MDA-MB-468, 48 h, read-out: Anti-proliferative/cytotoxic activity: IC50 MDA468
MCF7 cells = experiment: Cellular proliferation/cytotoxicity assay (Alamar Blue), MCF7; settings: Homo sapiens, MCF7, 48 h, read-out: Anti-proliferative/cytotoxic activity: IC50 MCF7
Protocol: The anti-proliferative activity of the compounds as described herein, is evaluated using MCF7 and MDA-MB-468 (ATCC HTB-22 and HTB-132) cell lines and the Alamar Blue (Resazurin) cell viability assay (O'Brien et al. Eur J Biochem 267, 5421-5426, 2000). Resazurin is reduced to the fluorescent resorufin by cellular dehydrogenase activity, correlating with viable, proliferating cells. Test compounds are dissolved as 10 mM solutions in DMSO and subsequently diluted. MCF7 or MDA-MB-434 cells were seeded into 96 well flat bottom plates at a density of 10000 cells/well (MCF7) or 5000 cells/well (MDA-MB-468) in a volume of 200 μl/well. 24 hours after seeding, 1 μl each of the compound dilutions are added into each well of the 96 well plates. Each compound dilution is tested as at least as duplicates. Wells containing untreated control cells were filled with 200 μl DMEM containing 0.5% v:v DMSO. The cells are then incubated with the substances for 48 hours at 37° C. in a humidified atmosphere containing 5% carbon dioxide. To determine cell viability, 20 μl of a Resazurin solution (Sigma; 90 mg/l) are added. After 4 hours incubation at 37° C. the fluorescence is measured at an extinction of 544 nm and an emission of 590 nm (Wallac Victor2; Perkin Elmer, USA). For the calculation of the cell viability the emission value from untreated cells is set as 100% viability and the emission rates of treated cells are set in relation to the values of untreated cells. Viabilities are expressed as % values. The corresponding IC50 values of the compounds for cytotoxic activity are determined from the concentration-effect curves by means of non-linear regression. The analysis of the data is performed using a biostatistical program (GraphPad Prism, USA).

GST-ΔPH-Akt1 = biological target: T1, GST-ΔPH-Akt1 (Homo sapiens, UniProt P31749); experiment: Biochemical ΔPH Akt1 assay (flashplate, 33P incorporation into histone 2B); settings: 100 nM ATP, histone 2B substrate; read-out: ΔPHAkt1 inhibition: IC50
T1 construct: named GST-deltaPH-Akt1; 107-480aa; cloned in the pAcGl vector; GST (N); made in house; host or cells: SF9 insect cells (baculovirus vector pAcG1), co-expressed with PDK1
Outline: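 The enzyme was GST-fused human Akt1 lacking the PH domain (aa 107–480), co-expressed with PDK1 in Sf9 cells, at 100 ng/well, with 100 ng/well histone 2B substrate and 100 nM ATP including 33P-ATP. 33P incorporation was counted on scintillant-coated flashplates.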

[1] = biological target: T2, full-length Akt1 (active) (Homo sapiens, UniProt P31749); experiment: Biochemical Akt1 assay (full-length Akt1 active, flashplate, Crosstide); settings: 100 nM ATP, Crosstide substrate; read-out: Akt1 inhibition (full-length Akt1, active): IC50
T2 construct: recombinant full-length human Akt1, containing N-terminal His6 tag; His6 (N); GST (N); purchased Upstate, UK #14-276; host or cells: baculovirus infected Sf21 insect cells
Text: For the biochemical Akt1 assay recombinant full-length human Akt1, containing N-terminal His6 tag is cloned and expressed in baculovirus infected Sf21 insect cells. Akt1 is activated with GST-MAPKAP-K2 and PDK1, and repurified on Ni2+/NTA-agrose and glutathioneagarose (Upstate, UK; #14-276).
In order to study the inhibition of Akt1 (full-length version) according to the invention, a flashplate-based assay has been developed.
The full-length Akt1 assay is a biochemical assay using Akt1 N-terminally fused to GST and co-expressed with PDKI in insect cells. The Akt1 assay is run in 96 well plates by incubating 500 ng/well GST-Akt1, 1 μM Crosstide (N-terminally biotinylated synthetic peptide (KGSGSGRPRTSSFAEG) Upstate, #12-385) as substrate, 10 μl of test compound (test compounds were dissolved as 10 mM solutions in dimethylsulfoxide (DMSO) and subsequently diluted) and 100 nM ATP (including ^33P-ATP) in 100 μl of reaction buffer (50 mM HEPES, pH7,5; 3 mM MgCl2; 3 mM MnCl2; 3 μM Na-Orthovanadat; 1 mM DTT; 1 μg/ml PEG8000) for 60 minutes at 30° C. in 96 well microtiter plates. The reactions are terminated by adding 100 μl stopping buffer (5M NaCl, 35 mM EDTA pH 8.0) for 5 minutes. 190μl of the reaction mixture are transferred into streptavidin-coated Flashplates (Perkin Elmer, #SMP-103) and incubated for further 30 minutes at room temperature. The plates are washed 3 times by using washing buffer (0.9% NaCl). Relying on the incorporation of ^33P into the peptide substrate crosstide, the detection is based on the specific binding of the biotinylated peptide to the streptavidin-coated surface of scintillator-coated flash plates (NEN, USA; #SMP-103). This phosphorylation is measured by counting the plate for 60 sec. using a plate reader (Wallac Microbeta; Perkin Elmer, USA).

T2 sequence (P31749 whole entry): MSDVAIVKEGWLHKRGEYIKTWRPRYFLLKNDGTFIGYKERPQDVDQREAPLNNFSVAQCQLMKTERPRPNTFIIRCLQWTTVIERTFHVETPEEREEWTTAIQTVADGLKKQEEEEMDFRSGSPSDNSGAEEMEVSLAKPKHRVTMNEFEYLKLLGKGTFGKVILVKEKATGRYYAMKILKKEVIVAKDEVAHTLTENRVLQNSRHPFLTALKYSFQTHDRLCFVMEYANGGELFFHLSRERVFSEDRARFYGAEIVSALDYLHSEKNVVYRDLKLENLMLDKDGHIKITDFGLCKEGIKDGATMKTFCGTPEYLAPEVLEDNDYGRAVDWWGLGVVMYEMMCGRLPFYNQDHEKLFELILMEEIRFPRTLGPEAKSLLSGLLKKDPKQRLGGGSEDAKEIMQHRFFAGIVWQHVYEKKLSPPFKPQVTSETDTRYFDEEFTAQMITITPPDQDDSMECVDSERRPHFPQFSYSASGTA
T1 sequence (P31749 107-480, stated change not applied): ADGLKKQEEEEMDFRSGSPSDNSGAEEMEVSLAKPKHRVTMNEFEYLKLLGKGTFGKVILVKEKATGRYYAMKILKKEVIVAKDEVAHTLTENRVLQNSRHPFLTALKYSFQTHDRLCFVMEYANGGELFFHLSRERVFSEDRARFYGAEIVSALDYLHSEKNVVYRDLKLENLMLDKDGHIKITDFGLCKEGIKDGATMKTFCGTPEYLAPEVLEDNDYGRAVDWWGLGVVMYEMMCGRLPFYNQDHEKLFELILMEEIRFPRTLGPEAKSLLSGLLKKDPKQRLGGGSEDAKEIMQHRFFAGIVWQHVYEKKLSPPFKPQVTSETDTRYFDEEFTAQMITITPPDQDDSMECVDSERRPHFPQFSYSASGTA

| Compound | IC50 (MDA-MB-468 cells) [µM] | IC50 (MCF7 cells) [µM] | IC50 (GST-ΔPH-Akt1) [µM] | IC50 [1] [µM] |
| --- | --- | --- | --- | --- |
| NCCCC(=O)Nc1ccc(Nc2nc(-c3cccc4c3oc3ccccc34)cc3ccnn23)cc1 [Example 24, 4-Amino-N-[4-(5-dibenzofuran-4-yl-pyrazolo[1,5-c]pyrimidin-7-ylamino)-phenyl]-butyramide] | ≤ 13.6 | ≤ 16.9 | ≤ 1.75 | ≤ 4.03 |
| COc1cccc(-c2ccc(-c3cc4ccnn4c(Nc4ccc(NC(=O)c5ccc(CN)cc5)cc4)n3)cc2)c1 [Example 59, 4-Aminomethyl-N-{4-[5-(3′-methoxy-biphenyl-4-yl)-pyrazolo[1,5-c]pyrimidin-7-ylamino]-phenyl}-benzamide] | ≤ 13.6 | ≤ 16.9 | ≤ 1.75 | ≤ 4.03 |
| O=C(Nc1cccc(Nc2nc(-c3cccc4c3oc3ccccc34)cc3ccnn23)c1)c1ccc2c(c1)CCNC2 [Example 63, 1,2,3,4-Tetrahydro-isoquinoline-6-carboxylic acid [3-(5-dibenzofuran-4-yl-pyrazolo[1,5-c]pyrimidin-7-ylamino)-phenyl]-amide] | ≤ 13.6 | ≤ 16.9 | ≤ 1.75 | ≤ 4.03 |
| COc1cccc(-c2ccc(-c3cc4c(Br)cnn4c(Nc4ccc(NC(=O)c5ccc(CN)cc5)cc4)n3)cc2)c1 [Example 87, 4-Aminomethyl-N-{4-[3-bromo-5-(3′-methoxy-biphenyl-4-yl)-pyrazolo[1,5-c]pyrimidin-7-ylamino]-phenyl}-benzamide] | ≤ 13.6 | ≤ 16.9 | ≤ 1.75 | ≤ 4.03 |
